Assay results taken from ChEMBL document CHEMBL1914296, “Copper(II) chloride mediated synthesis and DNA photocleavage activity of 1-aryl/heteroaryl-4-substituted-1,2,4-triazolo[4,3-a]quinoxalines” (Eur J Med Chem, 2011).

How the values were obtained:
[1] = Solubility of compound in DMSO; format: physicochemical
Nucleic Acid [2] = assay: (§1) Induction of bacteriophage supercoiled double stranded phiX174 plasmid DNA cleavage assessed as formation of relaxed open circular form at 120 ug followed by UV irradiation for 45 mins using ethidium bromide staining by agarose gel electrophoresis-based UV transilluminator analysis relative to control; format: nucleic-acid assay; parameters: scale not given: the % may be the effect or the level left; details: unidentified phage
Nucleic Acid [3] = assay: as §1, with “80” for “120”; format: nucleic-acid assay; parameters: scale not given: the % may be the effect or the level left; details: unidentified phage
Nucleic Acid [4] = assay: Induction of bacteriophage supercoiled double stranded phiX174 plasmid DNA cleavage assessed as formation of relaxed open circular form at 40 ug using ethidium bromide staining by agarose gel electrophoresis-based UV transilluminator analysis relative to control; format: nucleic-acid assay; parameters: scale not given: the % may be the effect or the level left; details: unidentified phage
Nucleic Acid [5] = assay: as §1, with “30” for “120”; format: nucleic-acid assay; parameters: scale not given: the % may be the effect or the level left; details: unidentified phage

SMILES | solubility [1] | Activity (Nucleic Acid [2]) [%] | Activity (Nucleic Acid [3]) [%] | Activity (Nucleic Acid [4]) [%] | Activity (Nucleic Acid [5]) [%]
Cc1nc2ccccc2n2c(-c3ccccc3Cl)nnc12 | soluble | – | – | – | –
Cc1nc2ccccc2n2c(-c3ccccc3[N+](=O)[O-])nnc12 | soluble | – | – | – | –
Cc1nc2ccccc2n2c(-c3cccs3)nnc12 | soluble | 68 | 53 | 0 | 26
Cc1nc2ccccc2n2c(-c3ccco3)nnc12 | soluble | – | – | – | –
